Columns and labels:
[1] = test system: Antibody column: 1,25-(OH)2-vitamin D3/D2 Immuno Tube Extraction Kit; assay: Antibody column fractionation of pooled serum, LC-MS/MS of adsorbed and non-adsorbed fractions; format: binding; conditions: SRM chromatograms FIG. 5B/5C
Procedure: (4) Sample Pretreatment • (4-1) In a microtube, 200 μL of a calibrator or a pooled serum, 180 μL of IS, and 20 μL of additives were placed, and the whole was stirred to prepare a sample. To the calibrator, 10 μL of an aqueous 1α,25-(OH)2D3 solution (1 ng/mL) and 10 μL of an aqueous 1α,25-(OH)2D3-^13C3 solution (1 ng/mL) were added as the additives. To the pooled serum, 10 μL of an aqueous 1α,25-(OH)2D3-^13C3 solution (1 ng/mL) and 10 μL of water were added. • (4-2) The sample was loaded on an antibody column, and the column sealed with a cap was gently shaken. • (4-3) The sample was rotated and mixed at room temperature for 1 hour with a rotator to be subjected to antigen-antibody reaction. • (4-4) The outlet of the antibody column was released, and the column was centrifuged at 550 g for 2 minutes to collect a non-adsorbed fraction. • (4-5) Into the column, 500 μL of WASHSOL supplied with the antibody column kit was added, and the column was centrifuged at 550 g for 2 minutes. […]

[2] = test system: Antibody column: 1,25-(OH)2-vitamin D3/D2 Immuno Tube Extraction Kit; assay: Separation measurement of 4β,25-(OH)2D3: antibody column fractionation of spiked vitamin D free serum, LC-MS/MS of fractions; format: binding; conditions: vitamin D free serum with 4β,25-(OH)2D3 at 50 pg/mL; SRM chromatograms FIG. 4A/4B
Text: • Standard: 4β,25-(OH)2D3 (vitamin D compound 54 produced in Example 1) • Stable isotope-labeled compound: 4β,25-(OH)2D3-d4 (vitamin D compound 52 produced in Example 1) • Vitamin D free serum: MSG1000 (Golden West Biologicals) • Antibody column: 1,25-(OH)2-vitamin D3/D2 Immuno Tube (trademark) Extraction Kit (Immunodiagnostik) • SLE column: Isolute SLE+ column (Biotage) • Derivatization reagent (DAP-PA): JeoQuant Kit for LC-MS/MS Analysis of Vitamin D Metabolites (JEOL) (2) IS (Internal Standard) Solution
An aqueous 4β,25-(OH)2D3-d4 solution was prepared at the concentration shown below.
(3) Sample Pretreatment • (3-1) In a microtube, 200 μL of a vitamin D free serum prepared to have a 4β,25-(OH)2D3 concentration of 50 pg/mL and 30 μL of IS were placed to prepare a sample. • (3-2) The sample was loaded on an antibody column, and the column sealed with a cap was gently shaken. • (3-3) The sample was rotated and mixed at room temperature for 1 hour with a rotator to be subjected to antigen-antibody reaction. • (3-4) The outlet of the antibody column was released, and the column was centrifuged at 550 g for 2 minutes to collect a non-adsorbed fraction. • (3-5) Into the column, 500 μL of WASHSOL supplied with the antibody column kit was added, and the column was centrifuged at 550 g for 2 minutes. […]

SMILES	Fraction of the antibody column in which the compound was collected [1]	Fraction of the antibody column that contains the compound [2]
C=C1/C(=C\C=C2/CCC[C@]3(C)[C@@H]([C@H](C)CCCC(C)(C)O)CC[C@@H]23)C[C@@H](O)C[C@@H]1O [1α,25(OH)2D3, 1α,25-dihydroxyvitamin D3]	collected in the adsorbed fraction	
C=C1CC[C@H](O)[C@H](O)/C1=C/C=C1\CCC[C@]2(C)[C@@H]([C@H](C)CCCC(C)(C)O)CC[C@@H]12 [4β,25-(OH)2D3, 4β,25-dihydroxyvitamin D3]	collected in the non-adsorbed fraction	only in the non-adsorbed fraction

From US12630505B2, “Alkyne compound, vitamin D compound, analytical method, and production method” (Tokyo University of Agriculture and Technology, priority 2021, dated 2026)
